One experiment has as its system P. aeruginosa AUMC-Pa-3. In words: microbe, parasite or virus in culture. To be noted: for MICac: MIC of the antibiotic in the combination: with D-11 at MICbc 4, unit not given. A digest of the protocol: (§1)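 Growth inhibition was scored by eye after an 18 h, 37 °C incubation of drug-bacteria mixtures in Mueller-Hinton broth. Inoculum suspension held approximately 1 × 10^6 CFU/mL before 1:1 mixing.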

The next experiment relates to P. aeruginosa AUMC-Pa-6. The experiment can be described thus: microbe, parasite or virus in culture. To be noted: for FICI / MICac: MIC of the antibiotic in the combination: strain AUMC-Pa-6; for FICI: antibiotic + D-11 (MICb/MICbc 64/4); for MICac: MIC of the antibiotic in the combination: with D-11 at MICbc 4, unit not given. An outline of the steps:
as §1

The subject of another experiment is P. aeruginosa AUMC-Pa-5. In words: microbe, parasite or virus in culture. To be noted: strain AUMC-Pa-5; for FICI: antibiotic + D-11 (MICb/MICbc 64/4); for MICac: MIC of the antibiotic in the combination: with D-11 at MICbc 4. An outline of the steps: as §1
The next experiment has as its system P. aeruginosa AUMC-Pa-4. The experiment can be described thus: microbe, parasite or virus in culture. To be noted: for MICac: MIC of the antibiotic in the combination: strain AUMC-Pa-4, with D-11 at MICbc 4, unit not given. A digest of the protocol: as §1
For the next experiment, the system named is P. aeruginosa AUMC-Pa-2. To be noted: strain AUMC-Pa-2; antibiotic + D-11 (MICb/MICbc 64/4). How it is done:
(§2) The MIC tests were performed in triplicate using broth microdilution in accordance with Clinical and Laboratory Standards Institute (CLSI) recommendations (http://iacld.ir/DL/public/CLSI-2018-M100-S28.pdf). Briefly, drugs were two-fold diluted in MHB and mixed with an equal volume of bacterial suspensions containing approximately 1 × 10^6 CFU/mL in 96-well microliter plate. After 18 h incubation at 37 °C, the MIC values were defined as the lowest concentrations of antibiotics with no visible growth of bacteria. […] Otherwise, 1/4 MIC of the peptide was used in the combination. […] If needed, membrane compounds PG, PE, PC, CL or LPS, or membrane stabilizers MgCl2 or CaCl2, or efflux pumps inhibitor PAβN were added to the broth medium to clarify the effect of other substances on the synergy between peptide and antibiotics. All the tests were performed in triplicate.
(§3) The fractional inhibitory concentration (FIC) indices were calculated using the previously described formula FICI = FICa + FICb = MICac/MICa + MICbc/MICb. The FICI was interpreted according to EUCAST [65] as follows: synergistic, FICI≤0.5; additive, 0.5<FICI≤1; indifferent, 1<FICI<2; antagonistic, FICI ≥2. For the FICI calculations, twice the highest concentration tested was used in the cases where the MIC was not reached.

The test system of another experiment is P. aeruginosa PAK. The experiment can be described thus: microbe, parasite or virus in culture. Details: MICa: MIC of the antibiotic / MICac: MIC of the antibiotic in the combination: unit not given beside the values. To be noted: for FICI / MICac: MIC of the antibiotic in the combination: strain PAK; for FICI: antibiotic + D-11 (MICb/MICbc 64/4); for MICac: MIC of the antibiotic in the combination: with D-11 at MICbc 4, unit not given. How it is done: as §2, §3

The test system of the next experiment is P. aeruginosa ATCC27853. In words: microbe, parasite or virus in culture. Details: MICa: MIC of the antibiotic / MICac: MIC of the antibiotic in the combination: unit not given beside the values. To be noted: for FICI / MICac: MIC of the antibiotic in the combination: strain ATCC27853; for FICI: antibiotic + D-11 (MICb/MICbc 32/4); for MICac: MIC of the antibiotic in the combination: with D-11 at MICbc 4, unit not given. The procedure: as §2, §3

The subject of another experiment is P. aeruginosa NR-31041. In words: microbe, parasite or virus in culture. To be noted: for FICI / MICac: MIC of the antibiotic in the combination: strain NR-31041; for FICI: antibiotic + D-11 (MICb/MICbc 64/4); for MICac: MIC of the antibiotic in the combination: with D-11 at MICbc 4, unit not given. On the set-up: MICa: MIC of the antibiotic / MICac: MIC of the antibiotic in the combination: unit not given beside the values. How it is done:
as §2, §3

Another experiment has as its system P. aeruginosa NR-31040. In words: microbe, parasite or virus in culture. Details: MICa: MIC of the antibiotic / MICac: MIC of the antibiotic in the combination: unit not given beside the values. To be noted: strain NR-31040, unit not given; for MICac: MIC of the antibiotic in the combination: with D-11 at MICbc 4. The procedure:
as §2, §3

For another experiment, the system named is P. aeruginosa PA14. In words: microbe, parasite or virus in culture. On the set-up: MICa: MIC of the antibiotic / MICac: MIC of the antibiotic in the combination: unit not given beside the values. To be noted: for MICac: MIC of the antibiotic in the combination: strain PA14, with D-11 at MICbc 4, unit not given. The procedure:
as §2, §3

Another experiment deals with P. aeruginosa HM-214. To be noted: strain HM-214; antibiotic + D-11 (MICb/MICbc 128/4). How it is done:
as §2, §3

For another experiment, the system named is P. aeruginosa PAO1. The experiment can be described thus: microbe, parasite or virus in culture. To be noted: PAO1; for FICI / MICac: the MIC for the antibiotic in the combination: S3 Table. A digest of the protocol: as §1
Another experiment has as its system P. aeruginosa AUMC-Pa-1. To be noted: strain AUMC-Pa-1; antibiotic + D-11 (MICb/MICbc 128/4). How it is done: as §2, §3

The text below walks through data of publication PMC8445441, “Elucidating the mechanism by which synthetic helper peptides sensitize Pseudomonas aeruginosa to multiple antibiotics” (PLoS Pathogens, 2021).

In the case of `CC[C@H]1OC(=O)[C@H](C)[C@@H](O[C@H]2C[C@@](C)(OC)[C@@H](O)[C@H](C)O2)[C@H](C)[C@@H](O[C@@H]2O[C@H](C)C[C@H](N(C)C)[C@H]2O)[C@](C)(O)C[C@@H](C)C(=O)[C@H](C)[C@@H](O)[C@]1(C)O` [Erythromycin], the “MICac: MIC of the antibiotic in the combination” value (“MICac: MIC of the antibiotic” below) in the experiment with P. aeruginosa AUMC-Pa-3 (strain AUMC-Pa-3) is given as 8; in the experiment on P. aeruginosa AUMC-Pa-6, 32; in the experiment with P. aeruginosa AUMC-Pa-5 (unit not given), 32; in the experiment on P. aeruginosa AUMC-Pa-4, 32; in the experiment with P. aeruginosa PAK, 16; with P. aeruginosa ATCC27853, 8. Moreover, the “MICac: MIC of the antibiotic” value in the experiment on P. aeruginosa NR-31041 is given as 16; in the experiment with P. aeruginosa NR-31040, 32; in the experiment with P. aeruginosa PA14, 32. Further, the FICI with P. aeruginosa AUMC-Pa-6 is given as 0.313; in the experiment with P. aeruginosa AUMC-Pa-5, 0.313; in the experiment on P. aeruginosa AUMC-Pa-2, 0.313; with P. aeruginosa PAK it was 0.188; with P. aeruginosa ATCC27853, 0.188; in the experiment on P. aeruginosa NR-31041, 0.188.

As to `CC1COc2c(N3CCN(C)CC3)c(F)cc3c(=O)c(C(=O)O)cn1c23` (centres unmarked) [Ofloxacin], the FICI with P. aeruginosa HM-214 is listed as 1.031; in the experiment with P. aeruginosa AUMC-Pa-3 (strain AUMC-Pa-3, antibiotic + D-11 (MICb/MICbc 128/4)), 0.281; in the experiment with P. aeruginosa PAO1 (antibiotic + 2 μM D-11), 0.188; with P. aeruginosa PAO1 (antibiotic + 4 μM D-11), 0.156; in the experiment with P. aeruginosa AUMC-Pa-6, 1.063; in the experiment on P. aeruginosa AUMC-Pa-5, 2.063. The FICI is on record as 0.563 with P. aeruginosa AUMC-Pa-2; 0.094 in the experiment on P. aeruginosa AUMC-Pa-1; 0.313 in the experiment with P. aeruginosa PAK; 0.250 with P. aeruginosa ATCC27853; 0.313 with P. aeruginosa NR-31041. Moreover, the MIC with P. aeruginosa AUMC-Pa-3 (Pseudomonas aeruginosa, AUMCPA3, 18 h, read-out: MICa: MIC of the antibiotic) is 1 µM; in the experiment on P. aeruginosa PAO1 (Pseudomonas aeruginosa, PAO1, 18 h, read-out: MICa: the MIC of antibiotics, S3 Table, antibiotic alone), 1 µM; in the experiment on P. aeruginosa AUMC-Pa-6 (Pseudomonas aeruginosa, AUMCPA6, 18 h, read-out: MICa: MIC of the antibiotic), 0.5 µM; in the experiment on P. aeruginosa AUMC-Pa-4 (Pseudomonas aeruginosa, AUMCPA4, 18 h, read-out: MICa: MIC of the antibiotic), 1 µM; with P. aeruginosa PAK (Pseudomonas aeruginosa, 18 h, read-out: MICa: MIC of the antibiotic), 2 µM; in the experiment with P. aeruginosa ATCC27853 (Pseudomonas aeruginosa, ATCC27853, 18 h, read-out: MICa: MIC of the antibiotic), 2 µM. In addition, the MIC in the experiment with P. aeruginosa NR-31041 (Pseudomonas aeruginosa, NR31041, 18 h, read-out: MICa: MIC of the antibiotic) is 2 µM; with P. aeruginosa PA14 (Pseudomonas aeruginosa, PA14, 18 h, read-out: MICa: MIC of the antibiotic) it was 1 µM. Further, the “MICac: MIC of the antibiotic” value is 0.25 with P. aeruginosa AUMC-Pa-3 (strain AUMC-Pa-3); 0.5/0.5 with P. aeruginosa AUMC-Pa-6; 2 in the experiment on P. aeruginosa AUMC-Pa-5 (unit not given); 0.25 in the experiment on P. aeruginosa AUMC-Pa-4; 0.5 in the experiment on P. aeruginosa PAK; 0.25 with P. aeruginosa ATCC27853. Moreover, the “MICac: MIC of the antibiotic” value in the experiment on P. aeruginosa NR-31041 came to 0.5; with P. aeruginosa NR-31040 it was 1; in the experiment with P. aeruginosa PA14, 0.5. For the same molecule, the “MICac: the MIC for the antibiotic in the combination” value was 0.125 µM in the experiment with P. aeruginosa PAO1 (with 2 μM D-11) and 0.03125 µM in the experiment with P. aeruginosa PAO1 (with 4 μM D-11). Besides, the “MICa: MIC of the antibiotic” value is given as 1 in the experiment on P. aeruginosa AUMC-Pa-5 (antibiotic alone, unit not given) and 2 with P. aeruginosa NR-31040 (antibiotic alone).
